Assay results: ChEMBL document CHEMBL4823282, “Novel Broad-Spectrum Antimicrobial Peptide Derived from Anoplin and Its Activity on Bacterial Pneumonia in Mice” (J Med Chem, 2021)
In brackets after ≈: the same amount, converted by molar mass. Activity calls are given as the source filed them. The calls are words filed in the database; no cut-off is given here. Where a SMILES comes first, the peptide text is derived from it.

Assays:
[1] = system: Staphylococcus aureus; test: Antibacterial activity against Staphylococcus aureus ATCC 25923 incubated with 0.02 ug/ml trypsin for 6 hrs followed by bacterial addition and measured after 18 hrs by CLSI based broth dilution method; format: functional, organism-based; conditions: dose 0.02 µg/ml, time 23.0 hrs
[2] = system: Klebsiella pneumoniae; test: Antibiofilm activity against Klebsiella pneumoniae ATCC 700603 at 2 to 4 times MIC incubated for 24 hrs by crystal violet staining based assay; format: functional, organism-based
[3] = system: Klebsiella pneumoniae; test: Antibacterial activity against Klebsiella pneumoniae ATCC 700603 incubated for 18 hrs by CLSI based broth dilution method; format: functional
[4] = system: Erythrocyte; test: Hemolytic activity in BALB/C mouse erythrocytes incubated for 1 hr by absorbance method; format: ADME, cell-based
[5] = system: Staphylococcus aureus; test: Antibacterial activity against Staphylococcus aureus ATCC 25923 incubated with 0.02 ug/ml chymotrypsin for 6 hrs followed by bacterial addition and measured after 18 hrs by CLSI based broth dilution method; format: functional, organism-based; conditions: dose 0.02 µg/ml, time 23.0 hrs
[6] = system: Klebsiella pneumoniae; test: Antibacterial activity against Klebsiella pneumoniae ATCC 700603 incubated with 0.02 ug/ml trypsin for 6 hrs followed by bacterial addition and measured after 18 hrs by CLSI based broth dilution method; format: functional, organism-based; conditions: dose 0.02 µg/ml, time 23.0 hrs
[7] = system: Acinetobacter baumannii; test: Antibacterial activity against Acinetobacter baumannii ATCC 19606 incubated for 18 hrs by CLSI based broth dilution method; format: functional; conditions: ATCC 19606 = CIP 70.34 = JCM 6841
[8] = system: Bacteria; test: Antibacterial activity against bacteria incubated for 18 hrs by CLSI based broth dilution method; format: functional
[9] = Selectivity ratio of MHC10 for BALB/C mouse erythrocytes to MIC for gram positive bacteria; format: toxicity
[10] = system: Klebsiella pneumoniae; test: Antibacterial activity against Klebsiella pneumoniae ATCC 700603 incubated with 0.02 ug/ml chymotrypsin for 6 hrs followed by bacterial addition and measured after 18 hrs by CLSI based broth dilution method; format: functional, organism-based; conditions: dose 0.02 µg/ml, time 23.0 hrs
[11] = system: Fungi; test: Antibacterial activity against fungi incubated for 18 hrs by CLSI based broth dilution method; format: functional
[12] = Selectivity ratio of MHC10 for BALB/C mouse erythrocytes to MIC for gram-negative bacteria; format: toxicity
[13] = system: Bacteria; test: Antibacterial activity against Gram-positive bacteria incubated for 18 hrs by CLSI based broth dilution method; format: functional
[14] = Selectivity ratio of MHC10 for BALB/C mouse erythrocytes to MIC for bacteria; format: toxicity
[15] = system: Enterococcus faecalis; test: Antibacterial activity against Enterococcus faecalis ATCC 29212 incubated for 18 hrs by CLSI based broth dilution method; format: functional
[16] = system: Bacteria; test: Antibacterial activity against Gram-negative bacteria incubated for 18 hrs by CLSI based broth dilution method; format: functional
[17] = system: Staphylococcus aureus; test: Antibacterial activity against Staphylococcus aureus ATCC 25923 at 0.5 to 1 times MIC incubated for 24 hrs by crystal violet staining based assay; format: functional, organism-based
[18] = Selectivity ratio of MHC10 for BALB/C mouse erythrocytes to MIC for fungi; format: toxicity
[19] = system: Escherichia coli; test: Antibiofilm activity against Escherichia coli ATCC 25922 at 4 times MIC incubated for 24 hrs by crystal violet staining based assay; format: functional, organism-based
[20] = system: Escherichia coli; test: Antibacterial activity against Escherichia coli ATCC 25922 incubated for 18 hrs by CLSI based broth dilution method; format: functional
[21] = system: Staphylococcus epidermidis; test: Antibacterial activity against Staphylococcus epidermidis ATCC 12228 incubated for 18 hrs by CLSI based broth dilution method; format: functional
[22] = system: Pseudomonas aeruginosa; test: Antibacterial activity against Pseudomonas aeruginosa ATCC 27853 incubated for 18 hrs by CLSI based broth dilution method; format: functional
[23] = system: Pseudomonas aeruginosa; test: Antibacterial activity against gentamicin-resistant Pseudomonas aeruginosa ATCC 27853 incubated for 18 hrs in presence of EDTA by CLSI based broth dilution method; format: functional, organism-based
[24] = system: Staphylococcus aureus; test: Antibacterial activity against Staphylococcus aureus ATCC 25923 incubated for 18 hrs by CLSI based broth dilution method; format: functional
[25] = system: Pseudomonas aeruginosa; test: Antibacterial activity against rifampin-resistant Pseudomonas aeruginosa ATCC 27853 incubated for 18 hrs by CLSI based broth dilution method; format: functional
[26] = system: Bacillus subtilis; test: Antibacterial activity against Bacillus subtilis ATCC 23857 incubated for 18 hrs by CLSI based broth dilution method; format: functional
[27] = system: Pseudomonas aeruginosa; test: Antibacterial activity against gentamicin-resistant Pseudomonas aeruginosa ATCC 27853 incubated for 18 hrs by CLSI based broth dilution method; format: functional
[28] = system: Pseudomonas aeruginosa; test: Synergistic antibacterial activity against Pseudomonas aeruginosa ATCC 27853 at 2 times MIC incubated for 18 to 24 hrs in presence of 2 times MIC of polymyxin B by broth microdilution assay based checkerboard assay; format: functional; conditions: time 18-24 hrs
[29] = system: Pseudomonas aeruginosa; test: Synergistic antibacterial activity against Pseudomonas aeruginosa ATCC 27853 at 2 times MIC incubated for 18 to 24 hrs in presence of 2 times MIC of rifampicin by broth microdilution assay based checkerboard assay; format: functional; conditions: time 18-24 hrs
[30] = Cytotoxicity against human glomerular mesangial cells incubated for 12 hrs by MTT assay; format: cell-based; conditions: Glomerular mesangial cell

Row | Compound | MIC [3] [µM] | MHC10 [4] | MIC [7] [µM] | MIC [8] [µM] | selectivity ratio at 18 h [9] | MIC [11] [µM] | selectivity ratio [12] | MIC [13] [µM] | selectivity ratio [14] | MIC [15] [µM] | MIC [16] [µM] | selectivity ratio [18] | MIC [20] [µM] | MIC [21] [µM] | MIC [22] [µM] | MIC [24] [µM] | MIC [26] [µM] | further results
1 | CC[C@H](C)[C@H](NC(=O)CN)C(=O)NCC(=O)N[C@@H](C)C(=O)N[C@H](C(=O)N[C@@H](CC(C)C)C(=O)N[C@@H](CCCCN)C(=O)N[C@H](C(=O)N[C@@H](CC(C)C)C(=O)N[C@H](C(=O)N[C@H](C(=O)NCC(=O)N[C@@H](CC(C)C)C(=O)N1CCC[C@H]1C(=O)N[C@@H](C)C(=O)N[C@@H](CC(C)C)C(=O)N[C@H](C(=O)N[C@@H](CO)C(=O)N[C@@H](Cc1c[nH]c2ccccc12)C(=O)N[C@H](C(=O)N[C@@H](CCCCN)C(=O)N[C@@H](CCCNC(=N)N)C(=O)N[C@@H](CCCCN)C(=O)N[C@@H](CCCNC(=N)N)C(=O)N[C@@H](CCC(N)=O)C(=O)N[C@@H](CCC(N)=O)C(N)=O)[C@@H](C)CC)[C@@H](C)CC)[C@@H](C)O)[C@@H](C)O)C(C)C)C(C)C [MELITTIN] | 16 (≈ 45.5 µg/mL) | 2.26 µM | 2 (≈ 5.69 µg/mL) | 4 (≈ 11.4 µg/mL) | 0.95 | 4 (≈ 11.4 µg/mL) | 0.34 | 2.38 (≈ 6.77 µg/mL) | 57 | 4 (≈ 11.4 µg/mL) | 6.73 (≈ 19.2 µg/mL) | 57 |  |  |  |  |  | Activity [1]: inactive; Activity [2]: Active; Activity [5]: inactive; Activity [6]: inactive; Activity [10]: inactive; Activity [17]: Active; Activity [19]: Active
2 | GENTAMICIN | 16 |  | < 1 |  |  |  |  |  |  | 4 |  |  | 4 | < 1 | 4 | < 1 | < 1 | MIC [23]: 8 µM; MIC [25]: 0.5 µM; MIC [27]: 64 µM
3 | C[C@@H](O)[C@H](NC(=O)[C@H](CCCCN)NC(=O)[C@H](Cc1c[nH]c2ccccc12)NC(=O)[C@H](CCCNC(=N)N)NC(=O)[C@H](CCCCN)NC(=O)[C@H](Cc1ccccc1)NC(=O)[C@H](Cc1ccccc1)NC(=O)CN)C(=O)N[C@@H](Cc1ccccc1)C(=O)N[C@@H](Cc1ccccc1)C(N)=O (H-GFFKRWKTFF-NH2) | 32 (≈ 43.6 µg/mL) | >= 512 uM | 64 (≈ 87.2 µg/mL) | 19 (≈ 25.9 µg/mL) | 32 | 19 (≈ 25.9 µg/mL) | 22.6 | 16 (≈ 21.8 µg/mL) | 26.9 | 64 (≈ 87.2 µg/mL) | 22.6 (≈ 30.8 µg/mL) | 26.9 | 16 (≈ 21.8 µg/mL) | 4 (≈ 5.45 µg/mL) | 16 (≈ 21.8 µg/mL) | 16 (≈ 21.8 µg/mL) | 16 (≈ 21.8 µg/mL) | FIC [28]: 0.25; FIC [29]: 0.3125; IC50 [30]: 48.2 µM
